Values joined by “and” are separate entries in the source; they are usually repeats but may differ in a detail not shown here. Identical values can stand only once.

The target of this assay is T1, FOLR (Homo sapiens, UniProt P15328).
T1 construct: Target cells: IGROV1 cells (typically 1000-20,000 cells per well); endogenous in cells; host or cells: IGROV1 cells
Put plainly: Antibody dependent cellular cytotoxicity (ADCC) reporter assay. In kind it is cell-based. As to conditions: IGROV1 target cells; anti-cotinine antibody (SEQ ID NO: 11/12, human IgG1 Fc S239D/I332E); Jurkat FcγRIIIa NFAT-luciferase reporter cells; about 12-18 hours; one value per experimental run; EC50 in molar (M); footnote: pEC50 < 5 = inactive. The procedure: An antibody dependent cellular cytotoxicity (ADCC) reporter assay was conducted using the following four assay components: (i) ARM compound of Formula (I) targeting FOLR (concentrations ranging from 1 pM to 10 μM); (ii) anti-cotinine antibody having a heavy chain sequence of SEQ ID NO: 11 and a light chain sequence of SEQ ID NO: 12 (rabbit variable region with human IgG1 Fc domain containing DE mutation (S239D/I332E)) (concentrations ranging from 0.01 μg/mL-200 μg/mL); (iii) Target cells: IGROV1 cells (typically 1000-20,000 cells per well); and (iv) Reporter cells—Jurkat cells engineered to express FcγRIIIa with a reporter gene luciferase under the control of the NFAT promoter (typically 3000-75,000 cells per well). Reagents were combined in final volume of 20 μL in 384-well tissue culture treated plate. […]
Luminescence signal was measured on a microplate reader capable of measuring luminescence and signal: background was calculated by dividing the signal of a test well by the signal obtained when no compound of formula (I) was included in the assay. […]
ARMs compounds of Formula (I) were tested for ADCC activity in the above assay in one or more experimental runs and the results are shown in Table 3 below. […] The pEC50 value is the negative log of the EC50 value, wherein the EC50 value is half maximal effective concentration measured in molar (M). […]
A general note: Reporter assays use an easily measured gene product as a stand-in for the process of interest.

T1 sequence (P15328 25-234 limits assumed): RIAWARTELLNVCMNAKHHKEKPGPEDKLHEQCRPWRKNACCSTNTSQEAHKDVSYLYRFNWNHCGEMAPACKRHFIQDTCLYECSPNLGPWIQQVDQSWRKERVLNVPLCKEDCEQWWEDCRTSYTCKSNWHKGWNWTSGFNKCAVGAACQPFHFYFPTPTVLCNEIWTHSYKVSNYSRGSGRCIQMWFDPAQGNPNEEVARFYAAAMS

For the compound `CN1C(=O)C[C@H](C(=O)NCCO[C@H]2CC[C@H](OCCCC(=O)N[C@H]3CC[C@H](C(=O)NCCNC(=O)CC[C@H](NC(=O)c4ccc(NCc5cnc6nc(N)[nH]c(=O)c6n5)cc4)C(=O)O)CC3)CC2)[C@H]1c1cccnc1` (racemic) [Example 2, N2-(4-(((2-Amino-4-oxo-3,4-dihydropteridin-6-yl)methyl)amino)benzoyl)-N5-(2-((1R,4S)-4-(4-(((1S,4R)-4-(2-((2S,3S)-1-methyl-5-oxo-2-(pyridin-3-yl)pyrrolidine-3-carboxamido)-ethoxy)cyclohexyl)oxy)butanamido)cyclohexane-1-carboxamido)ethyl)-L-glutamine], the EC50 was 6.31e-08 M and 7.94e-08 M.

With `CN1C(=O)C[C@H](C(=O)NCCNC(=O)CC[C@H](NC(=O)c2ccc(NCc3cnc4nc(N)[nH]c(=O)c4n3)cc2)C(=O)O)[C@H]1c1cccnc1` [Example 1, N2-(4-(((2-Amino-4-oxo-3,4-dihydropteridin-6-yl)methyl)amino)benzoyl)-N5-(2-((2S,3S)-1-methyl-5-oxo-2-(pyridin-3-yl)pyrrolidine-3-carboxamido)ethyl)-L-glutamine], the “ADCC Reporter Assay pEC50” value was 4.5 and 4.8.

For orientation: EC50 means the concentration at which the effect is half-maximal. Read a low EC50 as an effect from little substance.

For the origin of these results see US20250049932A1, “CYTOTOXICITY TARGETING CHIMERAS FOR FOLATE RECEPTOR-EXPRESSING CELLS” (GLAXOSMITHKLINE INTELLECTUAL PROPERTY DEVELOPMENT LIMITED, priority 2022, published 2025).
